From patent publication US4839355A, “Tricyclic-pyridinylquinoline compounds, their preparation and use” (Sterling Drug Inc., priority 1988, dated 1989)
Values after ≈ are worked out from the molar mass of the structure shown. Like-named read-outs stand apart in the source and are kept apart here.

Key:
[1] = tested on: Micrococcus luteus; assay: In vitro antimicrobial activity, microplate dilution MIC, Micrococcus luteus; assay type: cell-based
Experimental: (§1) The in vitro antimicrobial activity of the compounds of the invention was determined by a microplate dilution procedure. Bacterial cultures were grown in Meuller Hintom II (cation supplemented) broth (S. aureus, S. faecalis, M. luteus, E. coli and P. aeruginosa), Brain Heart Infusion (BHI) broth supplemented with 10% heat inactivated horse serum (S. penumoniae) or BHI broth supplemented with 5 mcg/ml Hemin and 0.5 mcg/ml vitamin K (B. fragilis) at 37° C. for 18-24 hrs. The cultures were grown under aerobic conditions with the exception of B. fragilis which was grown 48 hrs. under anaerobic conditions (atmosphere 5% CO2, 10% H2 and 85% N2). Resulting suspensions were diluted 1/10 in the appropriate broth or used undiluted for the inoculum. Aqueous solutions of the compounds of the invention were solubilized in dimethylsulfoxide (DMSO) at the desired concentration and 200 mcl were dispensed into the first row of wells of a sterile microplate. The compounds were then serially diluted two-fold in DMSO to give a working stock concentration range plate. The last row of wells was left compound-free receiving only DMSO to serve as a growth control. Five mcl from each well of the working stock plate was transferred to corresponding wells of a separate plate containing 95 mcl/well of the appropriate broth. All dilutions were made with either an automated dilutor or manually. The wells of microplate containing the desired compound concentrations and compound-free growth controls in broth were then inoculated using the MIC 2000 inoculator which delivers 1.5 mcl/well to give a final inoculum level of 10^4 microorganism/well or 10^5 microorganism/ml. Plates were incubated as described above and read for visible growth. The minimal inhibitory concentration (MIC: expressed in mcg/ml) of each compound tested against each test microorganism was determined as the lowest concentration of compound which prevents visible microbial growth.

[2] = tested on: Escherichia coli; assay: In vitro antimicrobial activity, microplate dilution MIC, Escherichia coli; assay type: cell-based
Experimental: as §1

[3] = tested on: Staphylococcus aureus; assay: In vitro antimicrobial activity, microplate dilution MIC, Staphylococcus aureus; assay type: cell-based; conditions: for MIC: Staphylococcus aureus, in vitro; for in vitro activity relative to compound P / in vitro activity relative to compound Q: from Table I MICs
Experimental: as §1

[4] = tested on: Streptococcus faecalis; assay: In vitro antimicrobial activity, microplate dilution MIC, Streptococcus faecalis; assay type: cell-based; conditions: Enterococcus faecalis
Experimental: as §1

[5] = tested on: Streptococcus pneumoniae; assay: In vitro antimicrobial activity, microplate dilution MIC, Streptococcus pneumoniae; assay type: cell-based
Experimental: as §1

[6] = tested on: Pseudomonas aeruginosa; assay: In vitro antimicrobial activity, microplate dilution MIC, Pseudomonas aeruginosa; assay type: cell-based; conditions: 10^5 microorganism/ml, read-out: MIC (minimal inhibitory concentration), PA
Experimental: as §1

[7] = tested on: Bacteroides fragilis; assay: In vitro antimicrobial activity, microplate dilution MIC, Bacteroides fragilis; assay type: cell-based
Experimental: as §1

[8] = tested on: Staph. aureus; assay: In vivo antibacterial activity in female mice, Staph. aureus infection; design: species or system Staphylococcus aureus; conditions: mouse; for ED50: Staphylococcus aureus, 168 h, one-half hour postinfection, deaths over seven days
Experimental: (§2) The in vivo antibacterial activity of the compounds of the invention was determined in female mice, 18-20 grams each. Aqueous solutions of the compounds to be tested were prepared by dissolving the free acid form in dilute sodium hydroxide and diluting the solution with distilled water to the desired concentration.
(§3) Cultures of E. coli were grown in brain heart infusion broth, and the mice were inoculated intraperitoneally with 0.5 ml of the bacterial test inoculum suspended in saline. Cultures of Staph. aureus were thawed from frozen pooled stocks and mixed with 5% mucin. A 0.5 ml preparation was used to infect mice by i.p. inoculation.
(§4) The mice were medicated subcutaneously (sc) or orally (po) with 0.5 ml of the test compound solution one-half hour postinfection. Deaths were recorded daily for seven days. Fifty percent protective dose values (PD50) were calculated using probit analyis.

[9] = tested on: E. coli; assay: In vivo antibacterial activity in female mice, E. coli infection; design: species or system Escherichia coli; conditions: mouse; for ED50: Escherichia coli, 168 h, one-half hour postinfection, deaths over seven days; for in vivo activity against E. coli compared with compounds P and Q: Table II
Experimental: as §2, §3, §4

[10] = tested on: bacteria; assay: In vitro antimicrobial activity, overall comparison over the bacterial panel; assay type: cell-based; conditions: for improved in vitro activity against named organisms / in vitro activity compared with prior art compounds P and Q: Table I MICs; for improved in vitro activity against named organisms: Staph. aureus, Strep. faecalis, Strep. pneumoniae
Experimental: as §1

[11] = Serum levels in monkeys after oral dosing; assay type: in vivo; conditions: 25 mg/kg oral
[12] = 10^5 microorganism/ml, read-out: MIC (minimal inhibitory concentration), ML
[13] = 10^5 microorganism/ml, read-out: MIC (minimal inhibitory concentration), EC
[14] = 10^5 microorganism/ml, read-out: MIC (minimal inhibitory concentration), SA
[15] = Streptococcus faecalis, 10^5 microorganism/ml, read-out: MIC (minimal inhibitory concentration), SF
[16] = 10^5 microorganism/ml, 10% horse serum in BHI broth, read-out: MIC (minimal inhibitory concentration), SP
[17] = 10^5 microorganism/ml, anaerobic, read-out: MIC (minimal inhibitory concentration), BF
[18] = po, read-out: PD50 (fifty percent protective dose), Staph. aureus, po
[19] = sc, read-out: PD50 (fifty percent protective dose), Staph. aureus, sc
[20] = po, read-out: PD50 (fifty percent protective dose), E. coli, po
[21] = sc, read-out: PD50 (fifty percent protective dose), E. coli, sc
[22] = Strep. pneumoniae, read-out: MIC

SMILES	MIC [1, 12] [µg/mL]	MIC [2, 13] [µg/mL]	MIC [3, 14] [µg/mL]	MIC [4, 15] [µg/mL]	MIC [5, 16] [µg/mL]	MIC [6] [µg/mL]	MIC [7, 17] [µg/mL]	ED50 [8, 18] [mg/kg]	ED50 [8, 19] [mg/kg]	ED50 [9, 20] [mg/kg]	ED50 [9, 21] [mg/kg]	in vivo activity against E. coli compared with compounds P and Q [9]	also measured
CCn1cc(C(=O)O)c(=O)c2cc(F)c(-c3cc(C)nc(C)c3)cc21 [Q, 7-(2,6-Dimethyl-4-pyridinyl)-1-ethyl-6-fluoro-1,4-dihydro-4-oxo-3-quinolinecarboxylic acid, reference compound]	0.5 (≈ 1.47 µM)	0.06 (≈ 0.176 µM)	0.03 (≈ 0.0881 µM)	0.25 (≈ 0.735 µM)	0.25 (≈ 0.735 µM)	4 (≈ 11.8 µM)	2 (≈ 5.88 µM)	1.38	0.71	8.24	5.39	–	–
CC[C@H]1COc2c(-c3cc(C)nc(C)c3)c(F)cc3c(=O)c(C(=O)O)cn1c23 [Compound C, (S)-10-(2,6-Dimethyl-4-pyridinyl)-9-fluoro-3-ethyl-7-oxo-2,3-dihydro-7H-pyrido[1,2,3-de][1,4]benzoxazine-6-carboxylic acid]	0.5 (≈ 1.31 µM)	0.016 (≈ 0.0418 µM)	< 0.004	0.125 (≈ 0.327 µM)	0.06 (≈ 0.157 µM)	4 (≈ 10.5 µM)	0.5 (≈ 1.31 µM)	0.41	0.2	32.9	8.8	–	more active than compound P against Staph. aureus ([8]; subcutaneous): fifteen; more active than compound Q against Staph. aureus ([8]; subcutaneous): three times more active; improved in vitro activity against named organisms [10]: improved activity against Staph. auerus, Strep. faecalis and Strip. pneumoniae
Cc1cc(-c2c(F)c(F)c3c(=O)c(C(=O)O)cn4c3c2OC[C@@H]4C)cc(C)n1 [A, (S)-10-(2,6-Dimethyl-4-pyridinyl)-8,9-difluoro-3-methyl-7-oxo-2,3-dihydro-7H-pyrido[1,2,3-de][1,4]benzoxazine-6-carboxylic acid]	1 (≈ 2.59 µM)	0.125 (≈ 0.324 µM)	0.016 (≈ 0.0414 µM)	0.125 (≈ 0.324 µM)	0.06 (≈ 0.155 µM)	8 (≈ 20.7 µM)	1 (≈ 2.59 µM)	0.13	0.05	12.3	4.7	approximately equal in activity to compound Q and slightly less active than compound P against E. coli	improved in vitro activity against named organisms [10]: improved activity against Staph. auerus, Strep. faecalis and Strip. pneumoniae
Cc1cc(-c2c(F)cc3c(=O)c(C(=O)O)cn4c3c2OC[C@@H]4C)cc(C)n1 [B, (S)-10-(2,6-Dimethyl-4-pyridinyl)-9-fluoro-3-methyl-7-oxo-2,3-dihydro-7H-pyrido[1,2,3-de][1,4]benzoxazine-6-carboxylic acid]	0.25 (≈ 0.679 µM)	0.03 (≈ 0.0814 µM)	0.008 (≈ 0.0217 µM)	0.06 (≈ 0.163 µM)	0.03 (≈ 0.0814 µM)	4 (≈ 10.9 µM)	0.25 (≈ 0.679 µM)	0.03	0.02	3	1.4	approximately equal in activity to compound Q and slightly less active than compound P against E. coli	in vitro activity relative to compound P ([3]; Staph. aureus): thirty times as active as compound P; in vitro activity relative to compound Q ([3]; Staph. aureus): four times as active as compound Q; serum levels [11]: high and prolonged serum levels; half-life ([11]; monkey, serum): 960 min; Cmax ([11]; monkey, serum, read-out: maximum concentration (serum)): 25000 ng/mL; Tmax ([11]; monkey, serum, read-out: time of maximum concentration (serum)): 3.5 h; in vitro activity compared with prior art compounds P and Q [10]: substantilly more active than the prior art compounds (P and Q) against all of the organisms except E. coli and P. aeruginosa
CC1COc2c(N3CCN(C)CC3)c(F)cc3c(=O)c(C(=O)O)cn1c23 (stereo not shown) [P, 9-Fluoro-3-methyl-10-(4-methyl-1-piperazinyl)-7-oxo-2,3-dihydro-7H-pyrido[1,2,3-de][1,4]benzoxazine-6-carboxylic acid, reference compound]	2 (≈ 5.53 µM)	0.008 (≈ 0.0221 µM)	0.25 (≈ 0.692 µM)	2 (≈ 5.53 µM)	0.25 (≈ 0.692 µM)	0.5 (≈ 1.38 µM)	0.5 (≈ 1.38 µM)	6.5	3	1.17	0.48	–	–
CCOC(=O)c1cn2c3c(c(-c4cc(C)nc(C)c4)c(F)cc3c1=O)OC[C@H]2C [Example 6(e), Ethyl (R)-10-(2,6-dimethyl-4-pyridinyl)-9-fluoro-3-methyl-7-oxo-2,3-dihydro-7H-pyrido[1,2,3-de][1,4]benzoxazine-6-carboxylate]	–	–	–	–	–	–	–	–	–	–	–	–	MIC ([2]; E. coli, read-out: MIC): 1 µg/mL (≈ 2.52 µM); MIC ([3]; Staph. aureus, read-out: MIC): 0.25 µg/mL (≈ 0.631 µM); MIC ([4]; Strep. faecalis, read-out: MIC): 4 µg/mL (≈ 10.1 µM); MIC [5, 22]: 1 µg/mL (≈ 2.52 µM); MIC ([7]; B. fragilis, read-out: MIC): 16 µg/mL (≈ 40.4 µM); antibacterial activity in vitro ([10]; in words): substantial antibacterial activity in vitro; in vitro activity compared with the (S)-isomer (compound B) ([10]; in words): less active than the (S)-isomer (compound B)
Cc1cc(-c2c(F)cc3c(=O)c(C(=O)O)cn4c3c2SC[C@@H]4C)cc(C)n1 [D, (S)-10-(2,6-Dimethyl-4-pyridinyl)-9-fluoro-3-methyl-7-oxo-2,3-dihydro-7H-pyrido[1,2,3-de][1,4]benzothiazine-6-carboxylic acid]	0.06 (≈ 0.156 µM)	0.06 (≈ 0.156 µM)	0.004 (≈ 0.0104 µM)	0.06 (≈ 0.156 µM)	0.016 (≈ 0.0416 µM)	2 (≈ 5.2 µM)	0.06 (≈ 0.156 µM)	0.03	0.03	2.6	1.5	approximately equal in activity to compound Q and slightly less active than compound P against E. coli	in vitro activity relative to compound P ([3]; Staph. aureus): sixty times as active as compound P; in vitro activity relative to compound Q ([3]; Staph. aureus): eight times as active as compound Q; in vitro activity compared with prior art compounds P and Q [10]: substantilly more active than the prior art compounds (P and Q) against all of the organisms except E. coli and P. aeruginosa
Cc1cc(-c2c(F)c(SCc3ccccc3)c3c(=O)c(C(=O)O)cn4c3c2OC[C@@H]4C)cc(C)n1 [Example 4, (S)-8-(Benzylthio)-10-(2,6-dimethyl-4-pyridinyl)-9-fluoro-3-methyl-7-oxo-2,3-dihydro-7H-pyrido[1,2,3-de][1,4]-benzoxazine-6-carboxylic acid]	–	–	–	–	–	–	–	–	–	–	–	–	MIC ([1]; M. luteus, read-out: MIC): 32 µg/mL (≈ 65.2 µM); MIC ([2]; E. coli, read-out: MIC): 8 µg/mL (≈ 16.3 µM); MIC ([3]; Staph. aureus, read-out: MIC): 1 µg/mL (≈ 2.04 µM); MIC ([4]; Strep. faecalis, read-out: MIC): 32 µg/mL (≈ 65.2 µM); MIC [5, 22]: 8 µg/mL (≈ 16.3 µM); MIC ([7]; B. fragilis, read-out: MIC): 32 µg/mL (≈ 65.2 µM); antibacterial activity in vitro ([10]; in words): appreciable antibacterial activity in vitro
